Legend:
Format in all cases: functional
K562 = assay: Growth inhibition of human K562 cells assessed as cell growth at 10 uM after 48 hrs by sulforhodamine B assay relative to control; conditions: K562, 48 h, read-out: Activity
RPMI-8226 = assay: Growth inhibition of human RPMI8226 cells assessed as cell growth at 10 uM after 48 hrs by sulforhodamine B assay relative to control; conditions: RPMI-8226, 48 h, read-out: Activity
A549 = assay: Growth inhibition of human A549/ATCC cells assessed as cell growth at 10 uM after 48 hrs by sulforhodamine B assay relative to control; conditions: A549, 48 h, read-out: Activity
HOP-62 = assay: Growth inhibition of human HOP62 cells assessed as cell growth at 10 uM after 48 hrs by sulforhodamine B assay relative to control; conditions: HOP-62, 48 h, read-out: Activity
NCI-H226 = assay: Growth inhibition of human NCI-H226 cells assessed as cell growth at 10 uM after 48 hrs by sulforhodamine B assay relative to control; conditions: NCI-H226, 48 h, read-out: Activity
NCI-H23 = assay: Growth inhibition of human NCI-H23 cells assessed as cell growth at 10 uM after 48 hrs by sulforhodamine B assay relative to control; conditions: NCI-H23, 48 h, read-out: Activity
NCI-H322M = assay: Growth inhibition of human NCI-H322M cells assessed as cell growth at 10 uM after 48 hrs by sulforhodamine B assay relative to control; conditions: read-out: Activity
NCI-H460 = assay: Growth inhibition of human NCI-H460 cells assessed as cell growth at 10 uM after 48 hrs by sulforhodamine B assay relative to control; conditions: NCI-H460, 48 h, read-out: Activity
COLO 205 = assay: Growth inhibition of human COLO205 cells assessed as cell growth at 10 uM after 48 hrs by sulforhodamine B assay relative to control; conditions: COLO 205, 48 h, read-out: Activity
[1] = Growth inhibition of human HCC2998 cells assessed as cell growth at 10 uM after 48 hrs by sulforhodamine B assay relative to control; conditions: HCC 2998, 48 h, read-out: Activity
HCT-116 = assay: Growth inhibition of human HCT116 cells assessed as cell growth at 10 uM after 48 hrs by sulforhodamine B assay relative to control; conditions: HCT-116, 48 h, read-out: Activity
[2] = Growth inhibition of human HCT15 cells assessed as cell growth at 10 uM after 48 hrs by sulforhodamine B assay relative to control; conditions: HCT-15, 48 h, read-out: Activity
HT-29 = assay: Growth inhibition of human HT-29 cells assessed as cell growth at 10 uM after 48 hrs by sulforhodamine B assay relative to control; conditions: HT-29, 48 h, read-out: Activity
KM12 = assay: Growth inhibition of human KM12 cells assessed as cell growth at 10 uM after 48 hrs by sulforhodamine B assay relative to control; conditions: KM12, 48 h, read-out: Activity
SF-268 = assay: Growth inhibition of human SF268 cells assessed as cell growth at 10 uM after 48 hrs by sulforhodamine B assay relative to control; conditions: SF-268, 48 h, read-out: Activity
[3] = Growth inhibition of human SF295 cells assessed as cell growth at 10 uM after 48 hrs by sulforhodamine B assay relative to control; conditions: SF-295, 48 h, read-out: Activity
[4] = Growth inhibition of human SF539 cells assessed as cell growth at 10 uM after 48 hrs by sulforhodamine B assay relative to control; conditions: SF-539, 48 h, read-out: Activity
SNB-19 = assay: Growth inhibition of human SNB19 cells assessed as cell growth at 10 uM after 48 hrs by sulforhodamine B assay relative to control; conditions: SNB-19, 48 h, read-out: Activity
M14 = assay: Growth inhibition of human M14 cells assessed as cell growth at 10 uM after 48 hrs by sulforhodamine B assay relative to control; conditions: M14, 48 h, read-out: Activity
[5] = Growth inhibition of human UACC257 cells assessed as cell growth at 10 uM after 48 hrs by sulforhodamine B assay relative to control; conditions: UACC-257, 48 h, read-out: Activity
IGROV-1 = assay: Growth inhibition of human IGROV1 cells assessed as cell growth at 10 uM after 48 hrs by sulforhodamine B assay relative to control; conditions: IGROV-1, 48 h, read-out: Activity
[6] = Growth inhibition of human OVCAR3 cells assessed as cell growth at 10 uM after 48 hrs by sulforhodamine B assay relative to control; conditions: OVCAR-3, 48 h, read-out: Activity
[7] = Growth inhibition of human OVCAR8 cells assessed as cell growth at 10 uM after 48 hrs by sulforhodamine B assay relative to control; conditions: OVCAR-8, 48 h, read-out: Activity
[8] = Growth inhibition of human NCI-ADR-RES cells assessed as cell growth at 10 uM after 48 hrs by sulforhodamine B assay relative to control; conditions: read-out: Activity
SK-OV-3 = assay: Growth inhibition of human SKOV3 cells assessed as cell growth at 10 uM after 48 hrs by sulforhodamine B assay relative to control; conditions: SK-OV-3, 48 h, read-out: Activity
A498 = assay: Growth inhibition of human A498 cells assessed as cell growth at 10 uM after 48 hrs by sulforhodamine B assay relative to control; conditions: A498, 48 h, read-out: Activity
ACHN = assay: Growth inhibition of human ACHN cells assessed as cell growth at 10 uM after 48 hrs by sulforhodamine B assay relative to control; conditions: read-out: Activity
CAKI-1 = assay: Growth inhibition of human CAKI-1 cells assessed as cell growth at 10 uM after 48 hrs by sulforhodamine B assay relative to control; conditions: CAKI-1, 48 h, read-out: Activity
[9] = Growth inhibition of human RXF393 cells assessed as cell growth at 10 uM after 48 hrs by sulforhodamine B assay relative to control; conditions: RXF 393, 48 h, read-out: Activity
SN12C = assay: Growth inhibition of human SN12C cells assessed as cell growth at 10 uM after 48 hrs by sulforhodamine B assay relative to control; conditions: read-out: Activity
PC-3 = assay: Growth inhibition of human PC3 cells assessed as cell growth at 10 uM after 48 hrs by sulforhodamine B assay relative to control; conditions: PC-3, 48 h, read-out: Activity
DU-145 = assay: Growth inhibition of human DU145 cells assessed as cell growth at 10 uM after 48 hrs by sulforhodamine B assay relative to control; conditions: DU-145, 48 h, read-out: Activity
MDA-MB-231 = assay: Growth inhibition of human MDA-MB-231 cells assessed as cell growth at 10 uM after 48 hrs by sulforhodamine B assay relative to control; conditions: MDA-MB-231, 48 h, read-out: Activity
T47D = assay: Growth inhibition of human T47D cells assessed as cell growth at 10 uM after 48 hrs by sulforhodamine B assay relative to control; conditions: read-out: Activity

SMILES | growth at 10 µM (K562) | growth at 10 µM (RPMI-8226) | growth at 10 µM (A549) | growth at 10 µM (HOP-62) | growth at 10 µM (NCI-H226) | growth at 10 µM (NCI-H23) | growth at 10 µM (NCI-H322M) | growth at 10 µM (NCI-H460) | growth at 10 µM (COLO 205) | growth at 10 µM [1] | growth at 10 µM (HCT-116) | growth at 10 µM [2] | growth at 10 µM (HT-29) | growth at 10 µM (KM12) | growth at 10 µM (SF-268) | growth at 10 µM [3] | growth at 10 µM [4] | growth at 10 µM (SNB-19) | growth at 10 µM (M14) | growth at 10 µM [5] | also measured
Nc1nc(-c2ccccc2Cl)cc(-c2ccc(Cl)cc2Cl)n1 | 27.3% | 35.2% | 52.7% | 76.2% | 87.7% | 75.4% | 89.5% | 49.8% | 64.9% | 83.6% | 33% | 90.2% | 36.6% | 53.8% | 65.9% | 38.7% | 72.2% | 78.2% | 53.5% | 93% | growth at 10 µM (IGROV-1): 74.7%; growth at 10 µM [6]: 85.2%; growth at 10 µM [7]: 71.2%; growth at 10 µM [8]: 79.8%; growth at 10 µM (SK-OV-3): 93%; growth at 10 µM (A498): 53.7%; growth at 10 µM (ACHN): 86%; growth at 10 µM (CAKI-1): 68%; growth at 10 µM [9]: 75.8%; growth at 10 µM (SN12C): 79.6%; growth at 10 µM (PC-3): 74.2%; growth at 10 µM (DU-145): 91.4%; growth at 10 µM (MDA-MB-231): 65%; growth at 10 µM (T47D): 63.7%
O=C1CS/C(=N\c2nc(-c3ccccc3Cl)cc(-c3ccc(Cl)cc3Cl)n2)N1 | 79.5% | 99.6% | 91.2% | 87.5% | 104% | 90% | 94.9% | 103% | 100% | 101% | 94.5% | 102% | 107% | 97.7% | 92.2% | 116% | 103% | 101% | 94% | 107% | growth at 10 µM (IGROV-1): 98.2%; growth at 10 µM [6]: 101%; growth at 10 µM [7]: 96.1%; growth at 10 µM [8]: 98.1%; growth at 10 µM (SK-OV-3): 95.4%; growth at 10 µM (A498): 101%; growth at 10 µM (ACHN): 98.1%; growth at 10 µM (CAKI-1): 88.6%; growth at 10 µM [9]: 111%; growth at 10 µM (SN12C): 98.5%; growth at 10 µM (PC-3): 83.8%; growth at 10 µM (DU-145): 105%; growth at 10 µM (MDA-MB-231): 88.8%; growth at 10 µM (T47D): 86.5%
O=C1N/C(=N/c2nc(-c3ccccc3Cl)cc(-c3ccc(Cl)cc3Cl)n2)S/C1=C/c1ccc(Cl)cc1 | 37.6% | 83.6% | 88.8% | 80.2% | 98.5% | 76% | 78.1% | 87.2% | 83.2% | 102% | 75.4% | 90% | 103% | 79.8% | 90.9% | 48.6% | 97.3% | 93.4% | 102% | 93.2% | growth at 10 µM (IGROV-1): 82.3%; growth at 10 µM [6]: 89.2%; growth at 10 µM [7]: 91.6%; growth at 10 µM [8]: 90.1%; growth at 10 µM (SK-OV-3): 99.2%; growth at 10 µM (A498): 76.2%; growth at 10 µM (ACHN): 91.6%; growth at 10 µM (CAKI-1): 97.2%; growth at 10 µM [9]: 100%; growth at 10 µM (SN12C): 91.5%; growth at 10 µM (PC-3): 79%; growth at 10 µM (DU-145): 100%; growth at 10 µM (MDA-MB-231): 63.2%; growth at 10 µM (T47D): 60.9%
